Data reported in patent US20230233736A1, “ANTIMICROBIAL FORMULATIONS COMPRISING SILICONE” (AMICOAT AS, priority 2020, published 2023).
≈ marks a conversion by molar mass, not a printed value.

Columns and labels:
Candida tropicalis = assay: MIC microbroth dilution (CLSI); format: cell-based; settings: ATCC750 - reference strain
[1] = tested on: Trichophyton mentagrophytes; assay: MIC microbroth dilution (CLSI); format: cell-based; settings: G.R. Micro collection
Cryptococcus neoformans = assay: MIC microbroth dilution (CLSI); format: cell-based; settings: G.R. Micro collection
Enterococcus gallinarum = assay: MIC microbroth dilution (CLSI); format: cell-based; settings: vancomycin-resistant (VanC) clinical isolate
From the text: (§1) Cation-adjusted Mueller-Hinton broth (Oxoid Ltd., Basingstoke, UK and Trek Diagnostic Systems Ltd., East Grinstead, UK) (supplemented with 5% laked horse blood for Streptococcus spp., Corynebacterium jeikeium and Listeria monocytogenes) was used for aerobic bacteria, with an initial inoculum of approximately 10^5 colony-forming units (CFU)/m L.

[2] = tested on: Staphylococcus saprophyticus; assay: MIC microbroth dilution (CLSI); format: cell-based; settings: antibiotic susceptible clinical isolate
From the text: as §1

Enterococcus faecalis = format: cell-based; settings: vancomycin-resistant (VanB) clinical isolate
From the text: as §1
(§2) To evaluate whether freezing affected the activity of the peptides some MIC determinations were repeated using plates containing freshly-prepared Mueller-Hinton broth.

Corynebacterium jeikeium = format: cell-based
From the text: as §1

[3] = tested on: Staphylococcus epidermidis; format: cell-based
From the text: as §1

[4] = tested on: Staphylococcus haemolyticus; format: cell-based
From the text: as §1

C. albicans = assay: Antimicrobial assay, Table 5; format: cell-based
S. pyogenes = assay: Antimicrobial assay, Table 5; format: cell-based
E. coli = assay: Antimicrobial assay, Table 5; format: cell-based
P. aeruginosa = assay: Antimicrobial assay, Table 5; format: cell-based
[5] = tested on: Staphylococcus aureus FDA486; assay: Murine skin infection model, topical treatment; format: in vivo, mice
Experimental: (§3) The skin of mice was infected with Staphylococcus aureus or Streptococcus pyogenes and subsequently given a total of three treatments at three hourly intervals. Three hours after the last treatment, skin biopsies were collected and the number of colony forming units (CFUs) present in the skin sample was determined. Results are shown in FIGS. 1 and 2, expressed as the number of colony forming units per mouse.
In experiment 1 (FIG. 1), compound 2 was applied to the murine skin as part of either a cream or a gel containing 2% (w/w) of compound 2. The same cream or gel without compound 2 was used as a negative control (placebo).
(§4) The skin of mice was infected with Staphylococcus aureus or Streptococcus pyogenes and subsequently given a total of three treatments at three hourly intervals. Three hours after the last treatment, skin biopsies were collected and the number of colony forming units (CFUs) present in the skin sample was determined. Results are shown in FIGS. 3, 4 and 5 expressed as the number of colony forming units per mouse.
In experiment 1 (FIG. 3), compound 7 was applied to the murine skin as part of either a cream or a gel containing 2% (w/w) of compound 7. The same cream or gel without compound 7 was used as a negative control (placebo). Bactroban 2% cream was used as a positive control.
In experiment 3 (FIG. 5), compound 8 was applied in a 2% cream formulation on a Staphylococcus aureus FDA 486 infection in the murine skin infection model. A placebo cream and two known antibacterials, “Fucidin (fucidic acid) ointment 2%” and “Bactroban (mupericin) cream 2%” were used as controls.

Streptococcus pyogenes [6] = assay: Murine skin infection model, topical treatment; format: in vivo, mice; settings: FIG. 4, Streptococcus pyogenes CS 301
Experimental: as §3
In experiment 2 (FIG. 2), compound 2 was applied in two different concentrations, as either a 1% or a 2% gel. A placebo gel and a known antibacterial “bactroban” were used as controls.
as §4
In experiment 2 (FIG. 4), compound 7 was applied in two different concentrations, as either a 1% or a 2% gel. A placebo gel and a known antibacterial “bactroban (mupericin)” were used as controls.

[7] = tested on: Candida (Issatchenkia) krusei
Clostridium perfringens = settings: antibiotic-susceptible clinical isolate
[8] = tested on: Staphylococcus aureus, strain ATCC 25923; settings: Table 5; strain ATCC 25923
[9] = tested on: Methicillin resistant Staphylococcus aureus (MRSA) strain ATCC 33591; settings: Table 5; strain ATCC 33591
[10] = tested on: Methicillin resistant Staphylococcus epidermidis (MRSE) strain ATCC 27626; settings: Table 5; strain ATCC 27626
Aspergillus niger = assay: MIC microbroth dilution (CLSI); format: cell-based; settings: G.R. Micro collection
[11] = tested on: Trichophyton interdigitale; assay: MIC microbroth dilution (CLSI); format: cell-based; settings: G.R. Micro collection
Microsporum canis = assay: MIC microbroth dilution (CLSI); format: cell-based; settings: G.R. Micro collection
Listeria monocytogenes = assay: MIC microbroth dilution (CLSI); format: cell-based; settings: antibiotic-susceptible clinical isolate
From the text: as §1

Salmonella sp = assay: MIC microbroth dilution (CLSI); format: cell-based
From the text: as §1

Shigella sp = assay: MIC microbroth dilution (CLSI); format: cell-based; settings: antibiotic-susceptible clinical isolate
From the text: as §1

[12] = tested on: Stenotrophomonas maltophilia; assay: MIC microbroth dilution (CLSI); format: cell-based; settings: antibiotic-susceptible clinical isolate
From the text: as §1

Staphylococcus aureus = format: cell-based
From the text: as §1, §2

Enterobacter sp = format: cell-based
From the text: as §1

Enterococcus faecium = format: cell-based
From the text: as §1

Group G Streptococcus = format: cell-based
From the text: as §1

Klebsiella aerogenes = format: cell-based
From the text: as §1

Morganella morganii = format: cell-based
From the text: as §1

Streptococcus agalactiae = format: cell-based
From the text: as §1

Streptococcus pyogenes [13] = format: cell-based
From the text: as §1

Propionibacterium acnes = assay: MIC microbroth dilution (CLSI); format: cell-based
Experimental: Supplemented Brucella broth (SBB) was used for the anaerobic strains with an inoculum of approximately 10^6 CFU/mL. SBB is a broth consisting of 1% peptone, 0.5% ‘Lab-lemco’, 1% glucose and 0.5% sodium chloride supplemented with 5 μg/L haemin and 1 μg/L vitamin K (both obtained from Sigma Aldrich Ltd.) Yeast and filamentous fungal MIC were performed in MOPS buffered RPMI 1640 medium (MOPS buffer obtained from Sigma Aldrich Ltd., RPMI 1640 obtained from Invitrogen Ltd, Paisley, Scotland). The yeast inocula were in the range 7.5×10^2-4×10^3 CFU/mL and the filamentous fungi approximately 8×10^3-1×10^5 CFU/mL
MICs were determined as described in Example 2.

[14] = antibiotic-susceptible clinical isolate

Work on CC(C)NC(=O)[C@H](CCCNC(=N)N)NC(=O)[C@H](Cc1c(C(C)(C)C)[nH]c2c(C(C)(C)C)cc(C(C)(C)C)cc12)NC(=O)[C@@H](N)CCCNC(=N)N [Compound 7] yielded an MIC (Candida tropicalis) of 4 µg/mL (≈ 5.51 µM), an MIC [1] of 8 µg/mL (≈ 11 µM) and an MIC (Cryptococcus neoformans) of 8 µg/mL (≈ 11 µM). The MIC (Enterococcus gallinarum) was 8 µg/mL (≈ 11 µM), the MIC [2] was 2 µg/mL (≈ 2.75 µM) and the MIC (Enterococcus faecalis) was ≥128 µg/mL. The MIC (Corynebacterium jeikeium) was 8 µg/mL (≈ 11 µM), the MIC [3] was 4 µg/mL (≈ 5.51 µM) and the MIC [4] was 4 µg/mL (≈ 5.51 µM). For the same compound, the C. albicans (C. albicans) was 25 mg/L, the S. pyogenes (S. pyogenes) was <2 mg/L and the E. coli (E. coli) was 7 mg/L. The P. aeruginosa (P. aeruginosa) was 7 mg/L, the “number of colony forming units (CFU) in skin biopsy” value (from here on “number of colony forming units”) ([5]; FIG. 3, cream or gel 2% (w/w), three treatments, compared to placebo) was “number of CFUs was reduced” and the “number of CFUs, 2% gel compared with 1% gel” value (Streptococcus pyogenes [6]) was “more effective than the gel containing only 1% of compound 7”. For the same compound, the “number of colony forming units” value (Streptococcus pyogenes [6]; 1% or 2% gel) was “more effective at reducing the number of CFUs from a Streptococcus pyogenes CS 301 infection than the placebo gel or the bactroban”, the MIC [7] was 8 µg/mL (≈ 11 µM) and the MIC (Clostridium perfringens) was ≥128 µg/mL. For the same compound, the S. aureus [8] was <2 mg/L, the MRSA [9] was <2 mg/L and the MRSE [10] was <2 mg/L.
CCCCCCNC(=O)[C@H](CCCNC(=N)N)NC(=O)[C@H](Cc1c(C(C)(C)C)[nH]c2c(C(C)(C)C)cc(C(C)(C)C)cc12)NC(=O)[C@@H](N)CCCNC(=N)N [Compound 8] gave an MIC (Candida tropicalis) of 4 µg/mL (≈ 5.21 µM), an MIC (Aspergillus niger) of 4 µg/mL (≈ 5.21 µM) and an MIC [1] of 4 µg/mL (≈ 5.21 µM). The MIC [11] was 4 µg/mL (≈ 5.21 µM), the MIC (Microsporum canis) was 4 µg/mL (≈ 5.21 µM) and the MIC (Cryptococcus neoformans) was 2 µg/mL (≈ 2.6 µM). The MIC (Enterococcus gallinarum) was 4 µg/mL (≈ 5.21 µM), the MIC (Listeria monocytogenes) was 8 µg/mL (≈ 10.4 µM) and the MIC (Salmonella sp; [14]) was 8 µg/mL (≈ 10.4 µM). The MIC (Salmonella sp; multi-drug resistant clinical isolate) was 8 µg/mL (≈ 10.4 µM), the MIC (Shigella sp) was 4 µg/mL (≈ 5.21 µM) and the MIC [2] was 0.5 µg/mL (≈ 0.651 µM). It also gave an MIC [12] of 4 µg/mL (≈ 5.21 µM), an MIC (Staphylococcus aureus) of 4 µg/mL (≈ 5.21 µM) and an MIC (Enterobacter sp) of 8 µg/mL (≈ 10.4 µM). The MIC (Enterococcus faecium) was 4 µg/mL (≈ 5.21 µM), the MIC (Group G Streptococcus) was 8 µg/mL (≈ 10.4 µM) and the MIC (Klebsiella aerogenes) was 8 µg/mL (≈ 10.4 µM). The MIC (Morganella morganii) was 8 µg/mL (≈ 10.4 µM), the MIC [4] was 4 µg/mL (≈ 5.21 µM) and the MIC (Streptococcus agalactiae) was 8 µg/mL (≈ 10.4 µM). The MIC (Streptococcus pyogenes [13]) was 8 µg/mL (≈ 10.4 µM), the MIC (Propionibacterium acnes; antibiotic-resistant clinical isolate) was 2 µg/mL (≈ 2.6 µM) and the MIC (Propionibacterium acnes; [14]) was 4 µg/mL (≈ 5.21 µM). The C. albicans (C. albicans) was 5 mg/L, the S. pyogenes (S. pyogenes) was 2 mg/L and the E. coli (E. coli) was 5 mg/L. For the same compound, the P. aeruginosa (P. aeruginosa) was 5 mg/L, the “number of colony forming units” value ([5]; FIG. 5, 2% cream formulation) was “more effective at reducing the number of CFUs than the placebo and fucidin or bactroban” and the MIC (Candida parapsilosis) was 8 µg/mL (≈ 10.4 µM). The S. aureus [8] was 2 mg/L, the MRSA [9] was 2 mg/L and the MRSE [10] was <1 mg/L.
